{
  "source": "patent US20080161289A1",
  "about": "“Fused Thiazole Derivatives Having Affinity for the Histamine H3 Receptor” (Glaxo Group Limited, priority 2005, published 2008)",
  "data": [
    {"target": "T1, histamine H3 receptors (Homo sapiens, UniProt Q9Y5N1)", "T1 construct": "expressed in transfected cells; host or cells: CHO K1 cells carrying pSwitch, transfected with pGeneH3, induced with mifepristone; clone 3H3; membrane preparation", "T1 sequence (Q9Y5N1 whole entry)": "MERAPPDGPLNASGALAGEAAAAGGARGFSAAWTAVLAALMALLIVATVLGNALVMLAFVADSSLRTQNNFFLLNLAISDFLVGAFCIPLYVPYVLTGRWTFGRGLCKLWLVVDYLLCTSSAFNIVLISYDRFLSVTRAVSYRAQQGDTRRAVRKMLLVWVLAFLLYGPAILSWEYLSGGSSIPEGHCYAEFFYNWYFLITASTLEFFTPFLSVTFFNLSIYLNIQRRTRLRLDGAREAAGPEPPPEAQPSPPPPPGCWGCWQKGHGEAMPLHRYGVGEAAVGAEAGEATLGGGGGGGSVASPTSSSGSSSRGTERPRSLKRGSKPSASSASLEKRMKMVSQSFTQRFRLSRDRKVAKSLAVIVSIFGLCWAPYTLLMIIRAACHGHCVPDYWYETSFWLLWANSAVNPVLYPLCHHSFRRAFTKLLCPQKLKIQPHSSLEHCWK", "assay": "Histamine H3 functional antagonist assay ([35S]-GTPγS SPA on membranes from H3 cells)", "format": "biochemical", "conditions": "hydrochloride salts tested; H3 functional antagonist assay using membrane prepared from cultured H3 cells; averages of a number of experiments; read-out: functional pKi (fpKi) (converted)", "from_the_text": "A membrane preparation containing histamine H3 receptors may be prepared in accordance with the following procedures:\n(i) Generation of Histamine H3 Cell Line\nDNA encoding the human histamine H3 gene (Huvar, A. et al. (1999) Mol. Pharmacol. 55(6), 1101-1107) was cloned into a holding vector, pCDNA3.1 TOPO (InVitrogen) and its cDNA was isolated from this vector by restriction digestion of plasmid DNA with the enzymes BamHI and Not-1 and ligated into the inducible expression vector pGene (InVitrogen) digested with the same enzymes. The GeneSwitch™ system (a system where in transgene expression is switched off in the absence of an inducer and switched on in the presence of an inducer) was performed as described in U.S. Pat. Nos. 5,364,791; 5,874,534; and 5,935,934. Ligated DNA was transformed into competent DH5α E. coli host bacterial cells and plated onto Luria Broth (LB) agar containing Zeocin™ (an antibiotic which allows the selection of cells expressing the sh ble gene which is present on pGene and pSwitch) at 50 μg ml^−1. Colonies containing the re-ligated plasmid were identified by restriction analysis. DNA for transfection into mammalian cells was prepared from 250 ml cultures of the host bacterium containing the pGeneH3 plasmid and isolated using a DNA preparation kit (Qiagen Midi-Prep) as per manufacturers guidelines (Qiagen).\nCHO K1 cells previously transfected with the pSwitch regulatory plasmid (InVitrogen) were seeded at 2×10e6 cells per T75 flask in Complete Medium, containing Hams F12 (GIBCOBRL, Life Technologies) medium supplemented with 10% v/v dialysed foetal bovine serum, L-glutamine, and hygromycin (100 μg ml^−1), 24 hours prior to use. Plasmid DNA was transfected into the cells using Lipofectamine plus according to the manufacturers guidelines (InVitrogen). 48 hours post transfection cells were placed into complete medium supplemented with 500 μg ml^−1 Zeocin™.\n10-14 days post selection 10 nM Mifepristone (InVitrogen), was added to the culture medium to induce the expression of the receptor. 18 hours post induction cells were detached from the flask using ethylenediamine tetra-acetic acid (EDTA; 1:5000; InVitrogen), following several washes with phosphate buffered saline pH 7.4 and resuspended in Sorting Medium containing Minimum Essential Medium (MEM), without phenol red, and supplemented with Earles salts and 3% Foetal Clone II (Hyclone). Approximately 1×10e7 cells were examined for receptor expression by staining with a rabbit polyclonal antibody, 4a, raised against the N-terminal domain of the histamine H3 receptor, incubated on ice for 60 minutes, followed by two washes in sorting medium. Receptor bound antibody was detected by incubation of the cells for 60 minutes on ice with a goat anti rabbit antibody, conjugated with Alexa 488 fluorescence marker (Molecular Probes). Following two further washes with Sorting Medium, cells were filtered through a 50 μm Filcon™ (BD Biosciences) and then analysed on a FACS Vantage SE Flow Cytometer fitted with an Automatic Cell Deposition Unit. Control cells were non-induced cells treated in a similar manner. Positively stained cells were sorted as single cells into 96-well plates, containing Complete Medium containing 500 μg ml^−1 Zeocin™ and allowed to expand before reanalysis for receptor expression via antibody and ligand binding studies. One clone, 3H3, was selected for membrane preparation.\n(ii) Membrane Preparation from Cultured Cells\nAll steps of the protocol are carried out at 4° C. and with pre-cooled reagents. The cell pellet is resuspended in 10 volumes of homogenisation buffer (50 mM N-2-hydroxyethylpiperazine-N′-2-ethanesulfonic acid (HEPES), 1 mM ethylenediamine tetra-acetic acid (EDTA), pH 7.4 with KOH, supplemented with 10e-6M leupeptin (acetyl-leucyl-leucyl-arginal; Sigma L2884), 25 μg/ml bacitracin (Sigma B0125), 1 mM phenylmethylsulfonyl fluoride (PMSF) and 2×10e-6M pepstain A (Sigma)). […]", "units": {"Ki": "nM"}, "values": [
      {"smiles": "Cc1cn(C)nc1C(=O)N1CCC(c2nc3c(s2)CCN(C2CCC2)CC3)CC1", "note": "[Example E85, 6-Cyclobutyl-2-{1-[(1,4-dimethyl-1H-pyrazol-3-yl)carbonyl]-4-piperidinyl}-5,6,7,8-tetrahydro-4H-[1,3]thiazolo[4,5-d]azepine]", "Ki": "< 1.26"},
      {"smiles": "Cc1cc(C(=O)N2CCC(c3nc4c(s3)CCN(C3CCC3)CC4)CC2)nn1C", "note": "[Example E88, 6-Cyclobutyl-2-{1-[(1,5-dimethyl-1H-pyrazol-3-yl)carbonyl]-4-piperidinyl}-5,6,7,8-tetrahydro-4H-[1,3]thiazolo[4,5-d]azepine]", "Ki": "< 1.26"},
      {"smiles": "O=C(c1ccccn1)N1CCC(c2nc3c(s2)CCN(C2CCC2)CC3)CC1", "note": "[Example E90, 6-Cyclobutyl-2-[1-(2-pyridinylcarbonyl)-4-piperidinyl]-5,6,7,8-tetrahydro-4H-[1,3]thiazolo[4,5-d]azepine]", "Ki": "< 1.26"},
      {"smiles": "Cc1cncc(C(=O)N2CCC(c3nc4c(s3)CCN(C3CCC3)CC4)CC2)n1", "note": "[Example E92, 6-Cyclobutyl-2-{1-[(6-methyl-2-pyrazinyl)carbonyl]-4-piperidinyl}-5,6,7,8-tetrahydro-4H-[1,3]thiazolo[4,5-d]azepine]", "Ki": "< 1.26"},
      {"smiles": "Cc1cc(C(=O)N2CCC(c3nc4c(s3)CCN(C3CCC3)CC4)CC2)ccn1", "note": "[Example E93, 6-Cyclobutyl-2-{1-[(2-methyl-4-pyridinyl)carbonyl]-4-piperidinyl}-5,6,7,8-tetrahydro-4H-[1,3]thiazolo[4,5-d]azepine]", "Ki": "< 1.26"},
      {"smiles": "Cc1nccc(C(=O)N2CCC(c3nc4c(s3)CCN(C3CCC3)CC4)CC2)n1", "note": "[Example E95, 6-Cyclobutyl-2-{1-[(2-methyl-4-pyrimidinyl)carbonyl]-4-piperidinyl}-5,6,7,8-tetrahydro-4H-[1,3]thiazolo[4,5-d]azepine]", "Ki": "< 1.26"},
      {"smiles": "O=S1(=O)CCCN1c1ccc(-c2nc3c(s2)CCN(C2CCC2)CC3)cc1", "note": "[Example E99, 6-Cyclobutyl-2-[4-(1,1-dioxido-2-isothiazolidinyl)phenyl]-5,6,7,8-tetrahydro-4H-[1,3]thiazolo[4,5-d]azepine]", "Ki": "< 1.26"},
      {"smiles": "NC(=O)c1ccc(-c2nc3c(s2)CCN(C2CCC2)CC3)cn1", "note": "[Example E100, 5-(6-Cyclobutyl-5,6,7,8-tetrahydro-4H-[1,3]thiazolo[4,5-d]azepin-2-yl)-2-pyridinecarboxamide]", "Ki": "< 1.26"},
      {"smiles": "O=C1NCCN1c1ccc(-c2nc3c(s2)CCN(C2CCC2)CC3)cn1", "note": "[Example E103, 1-[5-(6-Cyclobutyl-5,6,7,8-tetrahydro-4H-[1,3]thiazolo[4,5-d]azepin-2-yl)-2-pyridinyl]-2-imidazolidinone]", "Ki": "< 1.26"},
      {"smiles": "N#Cc1ccc(C(=O)N2CCC(c3nc4c(s3)CCN(C3CCC3)CC4)C2)cc1", "note": "(stereo not drawn) [Example E105, 4-{[3-(6-Cyclobutyl-5,6,7,8-tetrahydro-4H-[1,3]thiazolo[4,5-d]azepin-2-yl)-1-pyrrolidinyl]carbonyl}benzonitrile]", "Ki": "< 1.26"},
      {"smiles": "Cc1cccc(C(=O)N2CCC(c3nc4c(s3)CCN(C3CCC3)CC4)C2)n1", "note": "(stereo not drawn) [Example E106, 6-Cyclobutyl-2-{1-[(6-methyl-2-pyridinyl)carbonyl]-3-pyrrolidinyl}-5,6,7,8-tetrahydro-4H-[1,3]thiazolo[4,5-d]azepine]", "Ki": "< 31.6"},
      {"smiles": "c1cc(N2CCCC2)ncc1-c1nc2c(s1)CCN(C1CCC1)CC2", "note": "[Example E107, 6-Cyclobutyl-2-[6-(1-pyrrolidinyl)-3-pyridinyl]-5,6,7,8-tetrahydro-4H-[1,3]thiazolo[4,5-d]azepine]", "Ki": "> 7.94"},
      {"smiles": "c1cc(N2CCOCC2)ncc1-c1nc2c(s1)CCN(C1CCC1)CC2", "note": "[Example E108, 6-Cyclobutyl-2-[6-(4-morpholinyl)-3-pyridinyl]-5,6,7,8-tetrahydro-4H-[1,3]thiazolo[4,5-d]azepine]", "Ki": "< 1.26"},
      {"smiles": "N#Cc1cccc(-c2nc3c(s2)CCN(C2CCC2)CC3)c1", "note": "[Example E112, 3-(6-Cyclobutyl-5,6,7,8-tetrahydro-4H-[1,3]thiazolo[4,5-d]azepin-2-yl)benzonitrile]", "Ki": "< 31.6"},
      {"smiles": "CN(C)c1ccc(-c2nc3c(s2)CCN(C2CCC2)CC3)cc1", "note": "[Example E116, 4-(6-Cyclobutyl-5,6,7,8-tetrahydro-4H-[1,3]thiazolo[4,5-d]azepin-2-yl)-N,N-dimethylaniline]", "Ki": "< 1.26"}
    ]}
  ]
}
